In ChEMBL document CHEMBL6115022, “The Heterogeneous Kinetic Origins of the Binding Properties of Orthosteric Ligands at Heteromeric Nicotinic Acetylcholine Receptors” (J Med Chem, 2025):

Experiments:
[1] = target: T1, Neuronal acetylcholine receptor; alpha4/beta2 (Homo sapiens, UniProt P17787+P43681); assay: Displacement of [3H]epibatidine from human alpha4beta2 nAChR extracted from HEK293 cell membrane assessed as dissociation binding constant (Koff) incubated for 240 mins by liquid scintillation counting method; assay type: cell membranes
[2] = target: T1, Neuronal acetylcholine receptor; alpha4/beta2; assay: Displacement of [3H]epibatidine from human alpha4beta2 nAChR extracted from HEK293 cell membrane assessed as association binding constant (Kon) incubated for 240 mins by liquid scintillation counting method; assay type: cell membranes
[3] = target: T2, Neuronal acetylcholine receptor; alpha3/beta4 (Rattus norvegicus) (UniProt P04757+P12392); assay: Displacement of [3H]epibatidine from rat alpha3beta4 nAChR extracted from HEK293 cell membrane assessed as association binding constant (Kon) incubated for 60 to 120 mins by liquid scintillation counting method; assay type: cell membranes; details: filed as agonist, time lower 60.0 min, time upper […]
[4] = target: T1, Neuronal acetylcholine receptor; alpha4/beta2; assay: Displacement of [3H]epibatidine from human alpha4beta2 nAChR extracted from HEK293 cell membrane assessed as residence time incubated for 240 mins by liquid scintillation counting method; assay type: cell membranes
[5] = target: T2, Neuronal acetylcholine receptor; alpha3/beta4 (Rattus norvegicus); assay: Displacement of [3H]epibatidine from rat alpha3beta4 nAChR extracted from HEK293 cell membrane assessed as residence time incubated for 60 to 120 mins by liquid scintillation counting method; assay type: cell membranes; details: filed as agonist, time lower 60.0 min, time upper […]
[6] = target: T2, Neuronal acetylcholine receptor; alpha3/beta4 (Rattus norvegicus); assay: Displacement of [3H]epibatidine from rat alpha3beta4 nAChR extracted from HEK293 cell membrane assessed as dissociation binding constant (Koff) incubated for 60 to 120 mins by liquid scintillation counting method; assay type: cell membranes; details: filed as agonist, time lower 60.0 min, time upper […]
[7] = target: T3, Neuronal acetylcholine receptor; alpha3/beta4 (Rattus norvegicus, UniProt P04757+P12392); assay: Displacement of [3H]epibatidine from rat alpha3beta4 nAChR extracted from HEK293 cell membrane assessed as inhibition constant incubated for 60 to 120 mins by liquid scintillation counting method; assay type: cell membranes
[8] = target: T3, Neuronal acetylcholine receptor; alpha3/beta4; assay: Displacement of [3H]epibatidine from rat alpha3beta4 nAChR extracted from HEK293 cell membrane assessed as dissociation constant incubated for 60 to 120 mins by liquid scintillation counting method; assay type: cell membranes
[9] = target: T1, Neuronal acetylcholine receptor; alpha4/beta2; assay: Displacement of [3H]epibatidine from human alpha4beta2 nAChR extracted from HEK293 cell membrane assessed as inhibition constant incubated for 240 mins by liquid scintillation counting method; assay type: cell membranes
[10] = Selectivity index, ratio of Ki for displacement of [3H]epibatidine from rat alpha3beta4 nAChR extracted from HEK293 cell membrane to Ki for displacement of [3H]epibatidine from human alpha4beta2 nAChR extracted from HEK293 cell membrane
[11] = target: T1, Neuronal acetylcholine receptor; alpha4/beta2; assay: Displacement of [3H]epibatidine from human alpha4beta2 nAChR extracted from HEK293 cell membrane assessed as dissociation constant incubated for 240 mins by liquid scintillation counting method; assay type: cell membranes
[12] = target: T1, Neuronal acetylcholine receptor; alpha4/beta2; assay: Displacement of [3H]epibatidine from human alpha4beta2 nAChR extracted from HEK293 cell membrane assessed as fold increase in […] binding constant (Koff) incubated for 240 mins by liquid scintillation counting method relative to (+)-DHbetaE; assay type: cell membranes; details: filed as antagonist
[13] = target: T1, Neuronal acetylcholine receptor; alpha4/beta2; assay: Displacement of [3H]epibatidine from human alpha4beta2 nAChR extracted from HEK293 cell membrane assessed as fold increase in association binding constant (Kon) incubated for 240 mins by liquid scintillation counting method relative to (+)-DHbetaE; assay type: cell membranes; details: filed as antagonist
[14] = Selectivity index, ratio of K(on) for displacement of [3H]epibatidine from human alpha4beta2 nAChR extracted from HEK293 cell membrane to K(on) for displacement of [3H]epibatidine from rat alpha3beta4 nAChR extracted from HEK293 cell membrane
[15] = Selectivity index, ratio of K(off) for displacement of [3H]epibatidine from human alpha4beta2 nAChR extracted from HEK293 cell membrane to K(off) for displacement of [3H]epibatidine from rat alpha3beta4 nAChR extracted from HEK293 cell membrane

T1 sequence (P17787 whole entry): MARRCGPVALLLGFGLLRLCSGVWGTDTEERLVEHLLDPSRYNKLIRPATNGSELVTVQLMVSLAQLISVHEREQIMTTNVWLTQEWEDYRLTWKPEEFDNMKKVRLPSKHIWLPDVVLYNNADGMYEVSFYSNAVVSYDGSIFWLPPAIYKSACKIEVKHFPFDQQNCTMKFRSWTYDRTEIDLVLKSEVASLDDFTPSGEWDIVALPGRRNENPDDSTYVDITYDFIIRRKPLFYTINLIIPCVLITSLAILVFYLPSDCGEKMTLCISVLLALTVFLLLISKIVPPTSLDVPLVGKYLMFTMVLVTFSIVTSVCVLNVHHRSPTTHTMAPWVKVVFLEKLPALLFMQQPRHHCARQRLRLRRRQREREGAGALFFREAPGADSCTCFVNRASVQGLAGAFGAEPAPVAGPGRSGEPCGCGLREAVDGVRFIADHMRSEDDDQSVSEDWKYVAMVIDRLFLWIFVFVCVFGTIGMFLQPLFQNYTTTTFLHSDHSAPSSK
T1 sequence (P43681 whole entry): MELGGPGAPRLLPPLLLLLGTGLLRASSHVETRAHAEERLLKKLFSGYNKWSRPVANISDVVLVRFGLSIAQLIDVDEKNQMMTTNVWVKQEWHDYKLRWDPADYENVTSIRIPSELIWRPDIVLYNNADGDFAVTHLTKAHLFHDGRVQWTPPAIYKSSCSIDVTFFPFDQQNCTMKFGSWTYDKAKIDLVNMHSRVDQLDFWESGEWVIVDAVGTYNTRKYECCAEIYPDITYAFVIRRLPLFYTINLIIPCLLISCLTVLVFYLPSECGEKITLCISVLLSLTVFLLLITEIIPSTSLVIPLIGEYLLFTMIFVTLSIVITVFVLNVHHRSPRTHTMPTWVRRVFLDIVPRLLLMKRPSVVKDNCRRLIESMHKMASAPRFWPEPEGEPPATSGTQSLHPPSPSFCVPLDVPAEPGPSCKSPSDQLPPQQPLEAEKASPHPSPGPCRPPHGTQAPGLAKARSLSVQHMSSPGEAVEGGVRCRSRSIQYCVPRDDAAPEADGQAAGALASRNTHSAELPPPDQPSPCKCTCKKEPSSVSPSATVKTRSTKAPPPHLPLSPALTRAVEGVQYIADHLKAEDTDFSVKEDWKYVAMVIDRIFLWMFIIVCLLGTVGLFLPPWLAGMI
T3 sequence (P04757 whole entry): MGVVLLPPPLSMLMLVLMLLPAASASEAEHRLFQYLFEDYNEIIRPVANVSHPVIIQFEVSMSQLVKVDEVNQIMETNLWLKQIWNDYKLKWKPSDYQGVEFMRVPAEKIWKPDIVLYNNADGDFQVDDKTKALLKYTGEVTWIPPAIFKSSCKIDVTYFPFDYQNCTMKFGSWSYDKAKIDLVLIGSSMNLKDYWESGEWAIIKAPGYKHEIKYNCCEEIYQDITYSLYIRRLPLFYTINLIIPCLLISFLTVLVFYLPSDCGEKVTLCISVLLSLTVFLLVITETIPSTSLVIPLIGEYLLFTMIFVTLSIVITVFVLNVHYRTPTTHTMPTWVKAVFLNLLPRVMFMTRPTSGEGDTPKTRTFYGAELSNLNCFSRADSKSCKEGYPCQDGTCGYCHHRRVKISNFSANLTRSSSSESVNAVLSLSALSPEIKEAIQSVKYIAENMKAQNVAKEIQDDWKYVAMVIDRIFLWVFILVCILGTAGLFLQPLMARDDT
T3 sequence (P12392 whole entry): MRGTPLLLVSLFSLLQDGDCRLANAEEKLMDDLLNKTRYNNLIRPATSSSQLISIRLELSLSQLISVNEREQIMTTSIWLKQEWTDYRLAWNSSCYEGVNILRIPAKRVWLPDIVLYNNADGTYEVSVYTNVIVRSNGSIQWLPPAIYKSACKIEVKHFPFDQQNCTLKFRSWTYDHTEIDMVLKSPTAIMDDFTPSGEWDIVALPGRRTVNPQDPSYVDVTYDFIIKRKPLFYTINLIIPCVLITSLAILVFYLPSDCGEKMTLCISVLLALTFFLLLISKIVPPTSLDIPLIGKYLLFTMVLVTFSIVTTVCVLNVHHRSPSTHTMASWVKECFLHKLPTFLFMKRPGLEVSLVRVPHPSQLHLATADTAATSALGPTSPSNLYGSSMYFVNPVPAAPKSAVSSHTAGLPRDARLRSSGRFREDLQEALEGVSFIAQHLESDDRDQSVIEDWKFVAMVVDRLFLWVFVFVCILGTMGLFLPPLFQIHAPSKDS

Compound	K ([1]; filed as agonist)	K ([2]; filed as agonist)	K [3]	TIME ([4]; filed as agonist)	TIME [5]	K [6]	Ki [7]	Kd [8]	Ki [9]	Ratio Ki [10]	Kd [11]	K ([1]; filed as antagonist)	K ([2]; filed as antagonist)	TIME ([4]; filed as antagonist)	Ratio [12]	Ratio [13]	Ratio [14]	Ratio [15]
Cc1ncccc1OC[C@@H]1CCCN1 [POZANICLINE]	0.23 min⁻¹	517000 M⁻¹ s⁻¹	0.03 10^-3/nM/min	0.0783 h	0.04 h	0.44 min⁻¹	10000 nM	17000 nM										
Clc1ccc(C2CC3CCC2N3)cn1 (racemic)	0.012 min⁻¹	2.17e+07 M⁻¹ s⁻¹	2.17e+07 M⁻¹ s⁻¹	1.4 h	0.103 h	0.17 min⁻¹												
CCOc1cncc(/C=C/CCNC)c1	0.57 min⁻¹	4.83e+06 M⁻¹ s⁻¹	0.064 10^-3/nM/min	0.0417 h	0.0283 h	0.77 min⁻¹	25000 nM	12000 nM	0.8 nM	7000	1.7 nM							
CO[C@H]1CC=C2CCN3CCc4ccc(O)cc4[C@]23C1									3.1 nM		2.9 nM	0.12 min⁻¹	750000 M⁻¹ s⁻¹	0.15 h	13	130		
CN1CCC[C@H]1c1cccnc1	0.27 min⁻¹	3.83e+06 M⁻¹ s⁻¹	33300 M⁻¹ s⁻¹	0.0683 h	0.0683 h	0.3 min⁻¹												
O=c1cccc2n1C[C@@H]1CNC[C@H]2C1 [CYTISINICLINE]	0.05 min⁻¹	4.33e+06 M⁻¹ s⁻¹	33300 M⁻¹ s⁻¹	0.367 h	0.075 h	0.24 min⁻¹	110 nM	150 nM	0.2 nM	150	0.21 nM							
C[N+](C)(C)CCOC(N)=O [CARBAMOYLCHOLINE]	0.25 min⁻¹	16700 M⁻¹ s⁻¹	0.31 10^-3/nM/min	0.09 h	0.06 h	0.33 min⁻¹	2000 nM	1500 nM	56 nM	8	200 nM							
OCCCCC#Cc1cncc(OC[C@@H]2CCN2)c1	0.004 min⁻¹	1.12e+07 M⁻¹ s⁻¹	0.2 10^-3/nM/min	4.5 h	0.0467 h	0.39 min⁻¹	2200 nM	2200 nM	0.017 nM	7000	0.006 nM						3000	100
CO[C@H]1CC=C2CCN3CCC4=C(CC(=O)OC4)[C@]23C1												0.01 min⁻¹	0.3 10^-3/nM/min	1.87 h				
